Assay results as given in US20220295791A1, “METHODS FOR VIRAL INACTIVATION BY ENVIRONMENTALLY COMPATIBLE DETERGENTS” (Eli Lilly and Company, priority 2019, published 2022).

What was measured:
XMuLV = type: cell-based, Xenotropic Murine Leukemiavirus
[1] = tested on: enveloped viral inactivation; details: under a diverse set of experimental conditions; cited from earlier work

| Compound | XMuLV inactivation (XMuLV) | enveloped viral inactivation [1] |
| --- | --- | --- |
| CC(O)CO (centres unmarked) [monopropylene glycol] | not inactivate XMuLV |  |
| Triton X-100 |  | greater than 4 logs |
